The results in this text go back to PubChem BioAssay AID328 (DTP/NCI, 2004).

Molecules are shown by their SMILES. Where “and” joins values, the source holds several entries; their conditions need not be identical. Identical values can stand only once. Toxic doses and inconclusive results are not listed.

In the test the test system is BDF1 mice, P388 leukemia ip, median survival T/C. Description: NCI In Vivo Anticancer Drug Screen. Data for tumor model P388 Leukemia (intraperitoneal) in B6D2F1 (BDF1) mice. The settings on record: endpoint: median survival time, higher = longer survival. The procedure, abridged: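 Antitumour effect was judged in vivo: survival in drug-treated mice, normalised to that of vehicle-dosed controls, gives the reported T/C.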

Setting [1] is: dose: 100.0 mg/kg/injection, schedule: Q04DX003 (ip), vehicle: saline with Tween-80.
Where [2] appears, read: dose: 200.0 mg/kg/injection, schedule: Q04DX003 (ip), vehicle: saline with Tween-80.
Where [3] appears, read: dose: 400.0 mg/kg/injection, schedule: Q04DX003 (ip), vehicle: saline with Tween-80.
[4] abbreviates: dose: 50.0 mg/kg/injection, schedule: Q01DX009 (ip), vehicle: saline with Tween-80.
[5] abbreviates: dose: 100.0 mg/kg/injection, schedule: Q01DX009 (ip), vehicle: saline with Tween-80.
Where [6] appears, read: dose: 200.0 mg/kg/injection, schedule: Q01DX009 (ip), vehicle: saline with Tween-80.
Where [7] appears, read: dose: 50.0 mg/kg/injection, schedule: Q01DX009 (ip), vehicle: saline.
Setting [8] is: dose: 100.0 mg/kg/injection, schedule: Q01DX009 (ip), vehicle: saline.
Setting [9] is: dose: 100.0 mg/kg/injection, schedule: Q04DX003 (ip), vehicle: saline.
The mark [10] stands for this setting: dose: 200.0 mg/kg/injection, schedule: Q04DX003 (ip), vehicle: saline.
[11] abbreviates: dose: 400.0 mg/kg/injection, schedule: Q04DX003 (ip), vehicle: saline.

Regarding `Cc1ccc(Nc2nc(N)nc(CNc3ccc(Cl)cc3)n2)cc1`, the T/C is 110 % of control (dose: 100.0 mg/kg/injection, schedule: Q04DX003 (ip), vehicle: saline sonified); 100 % of control (dose: 200.0 mg/kg/injection, schedule: Q04DX003 (ip), vehicle: saline sonified); 100 % of control (dose: 400.0 mg/kg/injection, schedule: Q04DX003 (ip), vehicle: saline sonified).
As to `CN(C)C(C#N)c1c[nH]c2ccccc12` (configuration not stated), the T/C (dose: 6.25 mg/kg/injection, schedule: Q01DX009 (ip), vehicle: Klucel (hydroxypropylcellulose) (HPC)) is 105 % of control; the T/C (dose: 6.25 mg/kg/injection, schedule: Q04DX003 (ip), vehicle: Klucel (hydroxypropylcellulose) (HPC)) was 109 % of control; the T/C (dose: 12.5 mg/kg/injection, schedule: Q01DX009 (ip), vehicle: Klucel (hydroxypropylcellulose) (HPC)) is 100 % of control; the T/C (dose: 12.5 mg/kg/injection, schedule: Q04DX003 (ip), vehicle: Klucel (hydroxypropylcellulose) (HPC)) was 100 % of control; the T/C (dose: 25.0 mg/kg/injection, schedule: Q01DX009 (ip), vehicle: Klucel (hydroxypropylcellulose) (HPC)) was 94 % of control; the T/C (dose: 25.0 mg/kg/injection, schedule: Q04DX003 (ip), vehicle: Klucel (hydroxypropylcellulose) (HPC)) was 100 % of control.
As for `CCCC1CC[N-]CC1.CCCC1CC[N-]CC1.[Cl][Pd][Cl]`, the T/C by setting is: (dose: 12.5 mg/kg/injection, schedule: Q04DX003 (ip), vehicle: water) 95 % of control; (dose: 25.0 mg/kg/injection, schedule: Q01DX009 (ip), vehicle: water) 114 % of control; (dose: 50.0 mg/kg/injection, schedule: Q01DX009 (ip), vehicle: water) 114 % of control; (dose: 100.0 mg/kg/injection, schedule: Q04DX003 (ip), vehicle: water) 90 % of control and 112 % of control and 120 % of control; (dose: 200.0 mg/kg/injection, schedule: Q04DX003 (ip), vehicle: water) 95 % of control and 99 % of control and 120 % of control; (dose: 300.0 mg/kg/injection, schedule: Q04DX003 (ip), vehicle: water) 96 % of control.
As to `CCCC(O)C1CCCCC1O` (configuration not stated), the T/C was 100 % of control under setting [1], 100 % of control under setting [2] and 100 % of control under setting [3].
Consider `Cc1cc(N(CCOS(C)(=O)=O)CCOS(C)(=O)=O)ccc1C=O`, for which the T/C (dose: 12.5 mg/kg/injection, schedule: Q04DX003 (ip), vehicle: saline with Tween-80) was 231 % of control and the T/C (dose: 25.0 mg/kg/injection, schedule: Q04DX003 (ip), vehicle: saline with Tween-80) is 120 % of control.
Turning to `C/C=C/C(=O)OCCC[N+](C)(C)C`, the T/C is, setting by setting: (dose: 0.09 mg/kg/injection, schedule: Q01DX009 (ip), vehicle: saline) 95 % of control; (dose: 0.19 mg/kg/injection, schedule: Q01DX009 (ip), vehicle: saline) 92 % of control; (dose: 0.39 mg/kg/injection, schedule: Q01DX009 (ip), vehicle: saline) 96 % of control and 109 % of control; (dose: 0.78 mg/kg/injection, schedule: Q01DX009 (ip), vehicle: saline) 96 % of control and 101 % of control; (dose: 1.56 mg/kg/injection, schedule: Q01DX009 (ip), vehicle: saline) 96 % of control and 111 % of control; (dose: 3.12 mg/kg/injection, schedule: Q01DX009 (ip), vehicle: saline) 100 % of control and 105 % of control. Moreover, the T/C (dose: 6.25 mg/kg/injection, schedule: Q01DX009 (ip), vehicle: saline) was 92 % of control.
For `OC1(c2ccncc2)C=CCC1` (configuration not stated), the T/C reads like this: (dose: 25.0 mg/kg/injection, schedule: Q04DX002 (ip), vehicle: saline with Tween-80) 100 % of control; (dose: 50.0 mg/kg/injection, schedule: Q04DX002 (ip), vehicle: saline with Tween-80) 106 % of control; (dose: 100.0 mg/kg/injection, schedule: Q04DX002 (ip), vehicle: saline with Tween-80) 97 % of control.
With `CC(C)(Br)C(=O)c1ccc(Cl)s1`, the T/C by setting is: under setting [4], 101 % of control; under setting [5], 111 % of control; under setting [1], 109 % of control; under setting [6], 119 % of control; under setting [2], 115 % of control; (dose: 400.0 mg/kg/injection, schedule: Q01DX009 (ip), vehicle: saline with Tween-80) 119 % of control. For the same compound, the T/C under setting [3] is 107 % of control.
For the compound `CCCCSc1ncnc2nc[nH]c12`, the T/C was 104 % of control under setting [1] and 100 % of control under setting [2].
With `CCOC(=O)c1ccccn1`, the T/C was 108 % of control (dose: 12.5 mg/kg/injection, schedule: Q01DX009 (ip), vehicle: saline); 112 % of control (dose: 25.0 mg/kg/injection, schedule: Q01DX009 (ip), vehicle: saline with Tween-80); 105 % of control (dose: 25.0 mg/kg/injection, schedule: Q01DX009 (ip), vehicle: saline); 121 % of control under setting [4]; 94 % of control under setting [7]; 105 % of control under setting [5]. Besides, the T/C is 103 % of control under setting [8] and 110 % of control under setting [6].
For the compound `COc1ccc(CC2Cc3cc(OC)c(OC)cc3C=N2)cc1OC` (configuration not stated), the T/C is, setting by setting: under setting [7], 96 % of control; under setting [8], 107 % of control; under setting [9], 103 % of control; under setting [10], 111 % of control.
Consider `c1ccc(OCC2CO2)cc1` (configuration not stated), for which the T/C under setting [5] was 108 % of control and 118 % of control; the T/C under setting [1] was 110 % of control; the T/C under setting [6] is 108 % of control and 112 % of control; the T/C under setting [2] is 115 % of control; the T/C under setting [3] is 110 % of control.
`CCOC(=O)C1CCCC23CC(CC12)C(C)(C)C3Br` (configuration not stated): the T/C runs as follows: (dose: 100.0 mg/kg/injection, schedule: Q04DX003 (ip), vehicle: Klucel (hydroxypropylcellulose) (HPC)) 100 % of control; (dose: 200.0 mg/kg/injection, schedule: Q04DX003 (ip), vehicle: Klucel (hydroxypropylcellulose) (HPC)) 90 % of control; (dose: 400.0 mg/kg/injection, schedule: Q04DX003 (ip), vehicle: Klucel (hydroxypropylcellulose) (HPC)) 100 % of control.
On to `C[C@]12CC[C@H](O)C[C@@]1(O)CC[C@@H]1[C@@H]2CC[C@]2(C)[C@@H](c3ccc(=O)oc3)CC[C@]12O`, for which the T/C is 93 % of control (dose: 1.25 mg/kg/injection, schedule: Q01DX009 (ip), vehicle: Klucel (hydroxypropylcellulose) (HPC)); 94 % of control (dose: 2.5 mg/kg/injection, schedule: Q01DX009 (ip), vehicle: Klucel (hydroxypropylcellulose) (HPC)); 99 % of control (dose: 5.0 mg/kg/injection, schedule: Q01DX009 (ip), vehicle: Klucel (hydroxypropylcellulose) (HPC)); 105 % of control (dose: 6.2 mg/kg/injection, schedule: Q01DX010 (ip), vehicle: carboxymethylcellulose (CMC)); 101 % of control (dose: 10.0 mg/kg/injection, schedule: Q01DX009 (ip), vehicle: Klucel (hydroxypropylcellulose) (HPC)); 90 % of control (dose: 12.5 mg/kg/injection, schedule: Q01DX010 (ip), vehicle: carboxymethylcellulose (CMC)). Also, the T/C reads like this: (dose: 20.0 mg/kg/injection, schedule: Q01DX009 (ip), vehicle: Klucel (hydroxypropylcellulose) (HPC)) 105 % of control; (dose: 25.0 mg/kg/injection, schedule: Q01DX010 (ip), vehicle: carboxymethylcellulose (CMC)) 100 % of control.
Regarding `COc1c(O)c(O)c2c3c(c(O)c4c2c1C(=O)C=C4C)C(C)(C)C(C)O3` (configuration not stated), the T/C was 104 % of control (dose: 50.0 mg/kg/injection, schedule: Q04DX001 (ip), vehicle: saline); 100 % of control (dose: 100.0 mg/kg/injection, schedule: Q04DX001 (ip), vehicle: saline); 100 % of control (dose: 200.0 mg/kg/injection, schedule: Q04DX001 (ip), vehicle: saline).
Consider `COc1cc(CN2CCCN(Cc3cc(OC)c(OC)c(OC)c3)C2c2ccc(N(CCCl)CCCl)cc2C)cc(OC)c1OC`, for which the T/C reads like this: (dose: 50.0 mg/kg/injection, schedule: Q04DX003 (ip), vehicle: saline) 109 % of control; under setting [9], 104 % of control; under setting [10], 90 % of control; under setting [11], 109 % of control.
In the case of `CCCCCCCCCC(=O)CCC`, the T/C was 100 % of control under setting [9], 100 % of control under setting [10] and 104 % of control under setting [11].
